Test results from patent US8697739B2, “Bicyclic acetyl-CoA carboxylase inhibitors and uses thereof” (Novartis AG, priority 2010, dated 2014).

molecular target: T1, human acetyl-CoA carboxylase 2 (ACC2) (Homo sapiens, UniProt O00763); experiment: Acetyl-CoA carboxylase enzyme assay (malonyl-CoA formation by LC/MS/MS); assay type: biochemical; details: recombinant human ACC2 (aa 144-2458); read-out: IC50 ACC2
T1 construct: The cDNA encoding amino acids 144 to 2458 of human acetyl-CoA carboxylase 2; made in house; host or cells: Sf9 insect cells (baculovirus, pFastBac1)
Method in brief: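 Malonyl-CoA formation was read by LC/MS/MS MRM against a [13C3]-malonyl-CoA internal standard, after acetic acid quench. The enzyme was baculovirus/Sf9-expressed human ACC2 residues 144–2458, given 15 minutes room-temperature compound preincubation in HEPES pH 7.5 buffer with MgCl2, citrate and DTT. Substrate solution held 50 μM acetyl-CoA, 120 μM ATP and 2 mM KHCO3.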

T1 sequence (O00763 144-2458): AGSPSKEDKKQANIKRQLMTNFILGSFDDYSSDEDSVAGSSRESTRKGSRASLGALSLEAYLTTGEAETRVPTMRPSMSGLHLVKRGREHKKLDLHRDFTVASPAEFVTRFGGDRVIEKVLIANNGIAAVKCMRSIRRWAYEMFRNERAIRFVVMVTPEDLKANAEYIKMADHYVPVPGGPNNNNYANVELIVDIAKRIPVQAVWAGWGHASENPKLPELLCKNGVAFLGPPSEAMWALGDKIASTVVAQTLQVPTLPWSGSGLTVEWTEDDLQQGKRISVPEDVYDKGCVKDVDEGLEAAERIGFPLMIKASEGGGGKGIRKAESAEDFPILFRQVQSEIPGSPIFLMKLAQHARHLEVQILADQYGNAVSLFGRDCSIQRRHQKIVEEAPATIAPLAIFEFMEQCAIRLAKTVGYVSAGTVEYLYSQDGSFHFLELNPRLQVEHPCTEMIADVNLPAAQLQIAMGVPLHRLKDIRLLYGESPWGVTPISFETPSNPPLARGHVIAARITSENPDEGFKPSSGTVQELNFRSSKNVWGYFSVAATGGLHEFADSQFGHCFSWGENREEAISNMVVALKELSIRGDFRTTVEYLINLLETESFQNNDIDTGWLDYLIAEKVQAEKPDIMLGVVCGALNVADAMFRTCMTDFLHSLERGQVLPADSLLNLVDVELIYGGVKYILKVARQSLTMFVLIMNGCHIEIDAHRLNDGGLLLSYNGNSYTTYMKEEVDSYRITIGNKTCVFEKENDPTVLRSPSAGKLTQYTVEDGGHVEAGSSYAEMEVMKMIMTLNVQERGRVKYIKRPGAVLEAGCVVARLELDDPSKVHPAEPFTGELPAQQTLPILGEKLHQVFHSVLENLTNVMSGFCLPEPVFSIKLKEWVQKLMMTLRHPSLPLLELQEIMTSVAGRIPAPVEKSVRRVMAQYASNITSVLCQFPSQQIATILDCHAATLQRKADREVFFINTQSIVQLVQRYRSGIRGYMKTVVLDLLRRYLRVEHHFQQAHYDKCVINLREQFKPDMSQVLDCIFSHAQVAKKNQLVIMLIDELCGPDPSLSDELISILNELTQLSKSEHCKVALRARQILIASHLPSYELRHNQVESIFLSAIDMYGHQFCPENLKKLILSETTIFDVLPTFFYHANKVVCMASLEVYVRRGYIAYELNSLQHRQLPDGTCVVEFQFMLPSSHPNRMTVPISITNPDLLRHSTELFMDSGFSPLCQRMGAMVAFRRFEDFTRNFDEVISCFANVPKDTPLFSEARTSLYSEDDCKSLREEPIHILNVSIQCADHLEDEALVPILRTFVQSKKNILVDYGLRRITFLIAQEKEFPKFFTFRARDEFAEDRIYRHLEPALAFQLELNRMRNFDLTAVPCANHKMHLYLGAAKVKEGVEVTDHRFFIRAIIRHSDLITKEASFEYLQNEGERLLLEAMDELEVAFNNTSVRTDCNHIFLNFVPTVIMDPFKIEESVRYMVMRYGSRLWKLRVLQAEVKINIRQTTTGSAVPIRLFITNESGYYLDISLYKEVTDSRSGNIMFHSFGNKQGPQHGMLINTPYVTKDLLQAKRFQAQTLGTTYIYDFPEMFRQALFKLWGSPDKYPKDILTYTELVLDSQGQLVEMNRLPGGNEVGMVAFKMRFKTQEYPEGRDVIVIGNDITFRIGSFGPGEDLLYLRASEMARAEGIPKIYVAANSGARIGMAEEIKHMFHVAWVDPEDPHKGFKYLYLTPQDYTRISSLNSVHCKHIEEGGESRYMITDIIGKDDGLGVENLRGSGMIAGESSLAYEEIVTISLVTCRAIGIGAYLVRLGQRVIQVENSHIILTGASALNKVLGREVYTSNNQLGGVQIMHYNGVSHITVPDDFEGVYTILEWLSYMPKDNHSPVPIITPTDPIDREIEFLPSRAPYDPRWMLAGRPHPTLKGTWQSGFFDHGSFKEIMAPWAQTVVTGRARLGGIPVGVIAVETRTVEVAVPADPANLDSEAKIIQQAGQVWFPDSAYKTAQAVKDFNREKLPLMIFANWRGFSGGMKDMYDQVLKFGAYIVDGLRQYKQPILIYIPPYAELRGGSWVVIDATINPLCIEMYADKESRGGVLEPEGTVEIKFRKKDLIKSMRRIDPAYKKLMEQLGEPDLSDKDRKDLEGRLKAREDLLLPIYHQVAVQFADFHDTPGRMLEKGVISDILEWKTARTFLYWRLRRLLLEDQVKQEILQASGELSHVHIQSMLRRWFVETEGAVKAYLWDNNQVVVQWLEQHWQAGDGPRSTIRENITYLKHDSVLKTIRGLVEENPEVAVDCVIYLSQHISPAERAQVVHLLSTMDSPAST

| IC50 [nM] | Compound |
| --- | --- |
| 210 | C[C@@H](NC(=O)[C@H]1CC[C@H](NS(=O)(=O)c2ccc3nc(N4CCNC(C(F)(F)F)C4)ccc3c2)CC1)c1ccc(F)cc1 (stereo partly drawn) [Example 248, (1r,4R)-N-((R)-1-(4-fluorophenyl)ethyl)-4-(2-(3-(trifluoromethyl)piperazin-1-yl)quinoline-6-sulfonamido)cyclohexanecarboxamide] |
| 10 | C[C@@H](NC(=O)[C@H]1CC[C@H](NS(=O)(=O)c2ccc3nc(-c4cccc(C(=O)O)c4)ccc3c2)CC1)c1ccc(F)cc1 [Example 249, 3-(6-(N-((1R,4r)-4-((R)-1-(4-fluorophenyl)ethylcarbamoyl)cyclohexyl)sulfamoyl)quinolin-2-yl)benzoic acid] |
| 595 | C[C@@H](NC(=O)[C@H]1CC[C@H](NS(=O)(=O)c2ccc3c(c2)N(C)[C@H](C(=O)O)CC3)CC1)c1ccc(F)cc1 [Example 250, (S)-7-(N-((1R,4S)-4-((R)-1-(4-fluorophenyl)ethylcarbamoyl)cyclohexyl)sulfamoyl)-1-methyl-1,2,3,4-tetrahydroquinoline-2-carboxylic acid] |
| 35 | C[C@@H](NC(=O)[C@H]1CC[C@H](NS(=O)(=O)c2ccc3c(c2)N(C)[C@@H](C(=O)O)CC3)CC1)c1ccc(F)cc1 [Example 251, (R)-7-(N-((1R,4R)-4-((R)-1-(4-fluorophenyl)ethylcarbamoyl)cyclohexyl)sulfamoyl)-1-methyl-1,2,3,4-tetrahydroquinoline-2-carboxylic acid] |
| > 35000 | COC(=O)[C@H]1CC[C@H](NS(=O)(=O)c2ccc3nc(-c4cc(C)nc(C)c4)ccc3c2)CC1 [Example 252, (1r,4r)-methyl 4-(2-(2,6-dimethylpyridin-4-yl)quinoline-6-sulfonamido)cyclohexanecarboxylate] |
| 20 | Cc1cc(-c2ccc3cc(S(=O)(=O)N[C@H]4CC[C@H](C(=O)NC(c5ccccc5)C(C)(C)O)CC4)ccc3n2)cc(C)n1 (stereo partly drawn) [Example 253, (1r,4r)-4-(2-(2,6-dimethylpyridin-4-yl)quinoline-6-sulfonamido)-N-(2-hydroxy-2-methyl-1-phenylpropyl)cyclohexanecarboxamide] |
| 20 | Cc1cc(-c2ccc3cc(S(=O)(=O)N[C@H]4CC[C@H](C(=O)N5CCNCC5c5ccccc5)CC4)ccc3n2)cc(C)n1 (stereo partly drawn) [Example 254, 2-(2,6-dimethylpyridin-4-yl)-N-((1r,4r)-4-(2-phenylpiperazine-1-carbonyl)cyclohexyl)quinoline-6-sulfonamide] |
| 15 | CC(C)(C)OC(=O)N1CCN(C(=O)[C@H]2CC[C@H](NS(=O)(=O)c3ccc4oc5ccccc5c4c3)CC2)[C@@H](c2ccccc2)C1 [Example 255, (S)-tert-butyl 4-((1r,4S)-4-(dibenzo[b,d]furan-2-sulfonamido)cyclohexanecarbonyl)-3-phenylpiperazine-1-carboxylate] |
| 20 | O=C([C@H]1CC[C@H](NS(=O)(=O)c2ccc3oc4ccccc4c3c2)CC1)N1CCNC[C@@H]1c1ccccc1 [Example 256, N-((1S,4r)-4-((S)-2-phenylpiperazine-1-carbonyl)cyclohexyl)dibenzo[b,d]furan-2-sulfonamide] |
| 50 | Cc1cc(-c2ccc3cc(S(=O)(=O)N[C@H]4CC[C@H](C(=O)N5CCNC[C@H]5c5ccccc5)CC4)ccc3n2)cc(C)n1 [Example 257, 2-(2,6-dimethylpyridin-4-yl)-N-((1R,4r)-4-((R)-2-phenylpiperazine-1-carbonyl)cyclohexyl)quinoline-6-sulfonamide] |
| 80 | CN1CCN(c2ccc3cc(S(=O)(=O)N[C@H]4CC[C@H](C(=O)N[C@H](c5ccccc5)C(C)(C)O)CC4)ccc3n2)CC1 [Example 258, (1r,4R)-N-((R)-2-hydroxy-2-methyl-1-phenylpropyl)-4-(2-(4-methylpiperazin-1-yl)quinoline-6-sulfonamido)cyclohexanecarboxamide] |
| 450 | CN1CCN(c2ccc3cc(S(=O)(=O)NC4CCC(C(=O)N5CCNCC5c5ccccc5)CC4)ccc3n2)CC1 (stereo not drawn) [Example 259, 2-(4-methylpiperazin-1-yl)-N-((1r,4r)-4-(2-phenylpiperazine-1-carbonyl)cyclohexyl)quinoline-6-sulfonamide] |
